# Measurements taken from US20070078120A1, “Novel piperidine derivative” (priority 2003, published 2007).
# Structures can show the parent of a compound that is named as a salt.
# How the values were obtained:
# [1] = system: LDL receptor; experiment: LDL receptor activity: amount of DiI-LDL uptaken into HepG2 cells; assay type: cell-based, human; settings: DiI-LDL uptake into HepG2 cells, control group = 100%
# Experimental: A preparation of 1,1′-dioctadecyl-3,3,3′,3′-tetramethylindocarbocyanine perchlorate (DiI)-labeled LDL (DiI-LDL) was carried out as follows. That is, DiI (invitrogen, the U.S.) was mixed with human LDL (CHEMICON, the U.S.), and the mixture was kept for 8 hours at 37° C. Thereto a specific density solution (d=1.182) was added and mixed, and then treated with super centrifugation operation (32 k rpm, 14 hours; using Beckman Ti55.2 rotator). After the centrifugation, the DiI labeled LDL fraction was taken up and prepared via a dialysis against saline.
# The action on LDL receptor was determined with the amount of the DiI-LDL uptaken into HepG2 cells which was as an indicator. Namely, human hepatoma cell line HepG2 was bought from DAINIPPON PHARMACEUTICAL CO., LTD (Osaka, Japan) and it was used for the experiment. The HepG2 cells were plated on a 96 well plate and incubated with Dulbecco's modified Eagle/F-12 medium (DMEM/F-12) containing 10% fetal bovine serum and antibiotics for 2-3 days at 37° C. in a CO2 incubator. After washing the cells, DMEM/F-12 media containing the test compound, 10% delipoprotein serum and antibiotics was added thereto and cells were incubated for 19 hours at 37° C. The DiI-LDL was added thereto, and cells were incubated for additional 5 hours at 37° C. in a CO2 incubator. For the measurement of the amount of nonspecific DiI-LDL uptake, another 30-50 times the nonlabeled LDL was added additively to each well. After washing cells with Dulbecco's phosphate buffer (SIGMA, the U.S.), Dulbecco's phosphate buffer was added to each well, and then the fluorescence value was measured with a fluorescence plate reader to determine the amount of the DiI-LDL uptaken into cells. After measuring the fluorescence, the Dulbecco's phosphate buffer was removed. Cells were dissolved in 1N sodium hydroxide solution. Using a part of the solution, the protein amount was measured. The action of each compound on LDL receptor was estimated on the basis of 100% of the control group, using the value given by subtracting the nonspecifically uptaken amount from the calculated fluorescence value/protein amount.
# [2] = system: LDL receptor; experiment: Measurement of LDL receptor expression: LDL-R protein amount by immunoblotting in HepG2 cells; assay type: cell-based, human; settings: compared with the control group
# Experimental: We investigated the effect of each test compound on the amount of LDL receptor in HepG2 cells, a human hepatoma cell line. Cells were seeded in each well of 6-well plates at the density of 7.5×10^5 cells/well (day 1). On day 3, the culture media was changed to a media containing lipoprotein deficient serum and the test compound. On day 4, the cells were scraped and then collected by centrifugation operation. The collected cells were lysed in a buffer containing 0.1% TritonX-100, treated with centrifugation, and then the supernatant was given as a cell protein solution. Using the prepared cell protein solution, the LDL-R protein amount was determined with an immunoblotting procedure.
# HepG2 cells were treated with the compound of Examples 1-4, and then LDL receptor protein amount was determined by immunoblotting procedure.
Compound,Activity of LDL receptor(%) ([1]; 10 μM),also measured
"COc1cccc(C2(C#N)CCN(C3CCNCC3)CC2)c1 [Example 85, 4-(3-methoxyphenyl)-1,4′-bipiperidine-4-carbonitrile dihydrochloride]",149,
"COc1cccc(C2(C(=O)NCc3ccccc3)CCN(c3ncccn3)CC2)c1 [Example 43-2, N-benzyl-4-(3-methoxyphenyl)-1-pyrimidin-2-ylpiperidine-4-carboxyamide]",116,
"COc1cccc(C2(C#N)CCN(c3nc4ccccc4s3)CC2)c1 [Example 7-3, 1-(1,3-Benzothiazol-2-yl)-4-(3-methoxyphenyl)piperidine-4-carbonitrile]",,Activity of LDL receptor(%) ([1]; 3 μM): 125%
"COc1cccc([C@]2(C#N)CC[C@@H](NCc3ccccc3)CC2)c1 [Example 105, cis-4-(benzylamino)-1-(3-methoxyphenyl)-cyclohexanecarbonitrile]",139,
"COc1cccc([C@]2(C#N)CC[C@H](N3CCNCC3)CC2)c1 (as salt: hydrochloride) [Example 58-1, trans-1-(3-methoxyphenyl)-4-piperazin-1-yl-cyclohexanecarbonitrile dihydrochloride]",,melting point: 159 to 160 °C
"COc1cccc(C2(C(=S)NCc3ccccc3)CCN(c3ncccn3)CC2)c1 [Example 44, N-benzyl-4-(3-methoxyphenyl)-1-pyrimidin-2-ylpiperidine-4-carbothioamide]",,Activity of LDL receptor(%) ([1]; 3 μM): 135%
"COc1cccc(C2(C#N)CCC(N3CCN(c4ncccn4)CC3)CC2)c1 (centres unmarked) [Example 82, 1-(3-methoxyphenyl)-4-(4-pyrimidin-2-yl-piperazin-1-yl)cyclohexanecarbonitrile]",125,
"COc1cccc(C2(CO)CCN(c3ccccc3OC)CC2)c1 [Example 12, [1-(2-Methoxyphenyl)-4-(3-methoxyphenyl)piperidin-4-yl]-methanol]",134,
"COc1cccc(C2(C(N)=O)CC3CCC(C2)N3c2ccccc2OC)c1 (centres unmarked) [Example 49-f, 8-(2-Methoxyphenyl)-3-(3-methoxyphenyl)-8-azabicyclo-[3.2.1]octane-3-carboxyamide]",135,
"COc1cccc(C2(CN3CCCCC3)CCN(c3ccccc3OC)CC2)c1 [Example 55-1, 1-(2-methoxyphenyl)-4-(3-methoxyphenyl)-4-(piperidin-1-ylmethyl)piperidine]",,Activity of LDL receptor(%) ([1]; 1 μM): 141%
"COc1cccc(C2(C#N)CCN(c3ccccc3OC)CC2)c1 [Example 1-4, 1-(2-methoxyphenyl)-4-(3-methoxyphenyl)-piperidine-4-carbonitrile]",134,LDL receptor protein amount (immunoblotting) ([2]; 1 μM): superior activity enhancing the protein amount of LDL receptor; LDL receptor protein amount (immunoblotting) ([2]; 10 μM): superior activity enhancing the protein amount of LDL receptor
"COc1cccc(C2(C#N)CCN(C3CCN(Cc4ccccc4)CC3)CC2)c1 [Example 89, 1′-benzyl-4-(3-methoxyphenyl)-1,4′-bipiperidine-4-carbonitrile]",195,
1-(2-methoxyphenyl)-4-[3-(methylamino)-phenyl]piperidine-4-carbonitrile and 4-[3-(dimethylamino)-phenyl]-1-(2-methoxyphenyl)piperidine-4-carbonitrile [Example 20],123,
"COc1cccc(C2(C#N)CCN(c3ncccc3OCc3ccccc3)CC2)c1 [Example 6-3, 1-[3-(Benzyloxy)pyridin-2-yl]-4-(3-methoxyphenyl)-piperidine-4-carbonitrile]",127,
"COc1cccc([C@]2(C#N)CC[C@H](N3CCNCC3)CC2)c1 [Example 58-1, trans-1-(3-methoxyphenyl)-4-piperazin-1-yl-cyclohexanecarbonitrile dihydrochloride]",152,
